Patent US6017958A, “Method of treating malignant tumors with thyroxine analogues having no significant hormonal activity” (Octamer, Inc., priority 1997, dated 2000)
Where a name gives a salt, the structure may show the parent alone.

Legend:
pADPRT = conditions: parent 6-amino-1,2-benzopyrene; cited from earlier work
HIV = conditions: parent 6-amino-1,2-benzopyrene; cited from earlier work
tumor = conditions: parent 6-amino-1,2-benzopyrene; cited from earlier work
MDA-MB-231 cells = experiment: Flow cytometry / M phase block; format: cell-based, human; conditions: colcemid 0.1 μg/ml, 4 hrs
Experimental: The MDA-MB-231 cell line was obtained from ATCC (Rockville, Md., USA) and cells were cultured in T-75 flasks at 37° C. in Minimum Essential Medium-alpha, supplemented with 10% FCS. In controls, not receiving DIME, 0.1 μg/ml colcemid was added to cultures for 4 hrs prior to the collection of metaphase-blocked cells and preparation of cell spreads. […] Cells (10^7) were isolated from T-75 trypsinization for 5 min with 0.025% trypsin, and sedimented by centrifugation, resuspended and kept in 10 ml of 75 mM KC1 at 37° C. for 10 min, resedimented, and fixed in 10 ml methanol-acetic acid, with four successive changes of methanol-acetic acid. An aliquot of the final cell suspension (100 μl) was dropped on ethanol-cleaned slides and air-dried.
Cells exposed to different treatments were grown to confluence, trypsinized, and washed with phosphate buffered saline (PBS). For nuclear analysis, cells were fixed in Vindelov Citrate cell buffer: sucrose 250 mM, trisodium citrate. 2H20 40 mM, DMSO 50 ml in 1000 ml solution, pH 7.6. Normal human lymphocytes obtained from blood were used as controls. Each cell sample and control was counted with a hemacytometer and the cell concentration was adjusted to 2×10^6 cells/ml. Two million cells from each cell line in a total volume of 2 ml were washed twice with fresh PBS, treated with 200 μg/ml RNAase at 37° C. for 30 min, and stained with 10 μg/ml propidium iodide for 45 min. Flow cytometric analysis was performed on a FACScan benchtop flow cytometer (Becton-Dickinson, San Jose, Calif., USA) equipped with an air-cooled argon laser tuned to 488 nm. Twenty thousand events were collected as six parameter list mode data for analysis and archival storage. Two light scatter parameters (forward and side), propidium iodide fluorescence measured at 575/26 nm and above 620 nm, and doublet discrimination by fluorescence pulse width and area were acquired at 1024 data channel resolution. Acquisition threshold was set on propidium iodide positive events above channel 100. Gating to exclude small debris, large clumps and cell doublets was done post acquisition.

[1] = tested on: mouse pituitary thyrotropic tumors / non-malignant mouse pituitary adenoma; conditions: cited from earlier work
[2] = tested on: iodine uptake into the thyroid; conditions: rat, in vivo; cited from earlier work
Rana pipiens tadpoles = conditions: tadpole metamorphosis; cited from earlier work
Earl's L cells = conditions: Kirshan, 1968; cited from earlier work

Compound: Nc1ccc2oc(=O)ccc2c1I [5-iodo-6-amino-1,2-benzopyrone]
- pADPRT inhibitory potency versus parent compound (pADPRT): significantly augmented
- antiHIV activity versus parent compound (HIV): significantly augmented
- antitumor action versus parent compound (tumor): significantly augmented

Compound: CN[C@H]1CCc2cc(OC)c(OC)c(OC)c2-c2ccc(OC)c(=O)cc21 [colcemid, reference compound]
- cell cycle block in M phase, comparison of DIME and colcemid (MDA-MB-231 cells): indistinguishable with respect to the cell cycle block in M phase

Compound: N[C@@H](Cc1cc(I)c(Oc2cc(I)c(O)c(I)c2)c(I)c1)C(=O)O [thyroxine]
- growth of mouse pituitary tumor [1]: depress growth of non-malignant mouse pituitary thyrotropic tumors
- suppression of iodine uptake by the thyroid [2]: suppresses uptake of iodine by the thyroid
- metamorphosis / cell differentiating activity (Rana pipiens tadpoles): induces cell differentiation

Compound: CC[C@]1(O)C[C@@H]2CN(CCc3c([nH]c4ccccc34)[C@@](C(=O)OC)(c3cc4c(cc3OC)N(C)[C@H]3[C@@](O)(C(=O)OC)[C@H](OC(C)=O)[C@]5(CC)C=CCN6CC[C@]43[C@@H]65)C2)C1 [vinblastine sulfate]
- metaphase block / multinucleation (Earl's L cells): induces metaphase blocked multinucleated cells
